Assays:
Assay in all cases: KINOMEscan competition binding
Conditions in all cases: compound 10.0 µM
DCLK2 (human) = DCLK2 (human) (UniProt Q8N568)
PIP4K2C (human) = PIP4K2C (human) (UniProt Q8TBX8)
MAST1 (human) = MAST1 (human) (UniProt Q9Y2H9)
SIK2 (human) = SIK2 (human) (UniProt Q9H0K1)
MAP4K1 (human) = MAP4K1 (human) (UniProt Q92918)
MAPK12 (human) = MAPK12 (human) (UniProt P53778)
BMPR2 (human) = BMPR2 (human) (UniProt Q13873)
PRKACB (human) = PRKACB (human) (UniProt P22694)
TESK1 (human) = TESK1 (human) (UniProt Q15569)
PLK2 (human) = PLK2 (human) (UniProt Q9NYY3)
ACVR2B (human) = ACVR2B (human) (UniProt Q13705)
SYK (human) = SYK (human) (UniProt P43405)
STK17A (human) = STK17A (human) (UniProt Q9UEE5)
WEE2 (human) = WEE2 (human) (UniProt P0C1S8)
GRK7 (human) = GRK7 (human) (UniProt Q8WTQ7)
TEC (human) = TEC (human) (UniProt P42680)
[1] = tested on: LRRK2 (human), Q5S007 [G2019S]
PTK6 (human) = PTK6 (human) (UniProt Q13882)
TNNI3K (human) = TNNI3K (human) (UniProt Q59H18)
FYN (human) = FYN (human) (UniProt P06241)
LRRK2 (human) = LRRK2 (human) (UniProt Q5S007)
PRKAA2 (human) = PRKAA2 (human) (UniProt P54646)
CSNK1D (human) = CSNK1D (human) (UniProt P48730)
STK25 (human) = STK25 (human) (UniProt O00506)
MYO3B (human) = MYO3B (human) (UniProt Q8WXR4)
CDKL3 (human) = CDKL3 (human) (UniProt Q8IVW4)
STK33 (human) = STK33 (human) (UniProt Q9BYT3)
FGFR2 (human) = FGFR2 (human) (UniProt P21802)
CSNK2A1 (human) = CSNK2A1 (human) (UniProt P68400)
ERBB3 (human) = ERBB3 (human) (UniProt P21860)
PIK3C2B (human) = PIK3C2B (human) (UniProt O00750)
HIPK3 (human) = HIPK3 (human) (UniProt Q9H422)
AXL (human) = AXL (human) (UniProt P30530)
ULK3 (human) = ULK3 (human) (UniProt Q6PHR2)
MAP3K13 (human) = MAP3K13 (human) (UniProt O43283)
CLK1 (human) = CLK1 (human) (UniProt P49759)
MST1R (human) = MST1R (human) (UniProt Q04912)
SRC (human) = SRC (human) (UniProt P12931)
NIM1 (human) = NIM1 (human) (UniProt Q8IY84)
CHEK2 (human) = CHEK2 (human) (UniProt O96017)

Sequence of CSNK2A1 (human) (P68400 whole entry, looked up): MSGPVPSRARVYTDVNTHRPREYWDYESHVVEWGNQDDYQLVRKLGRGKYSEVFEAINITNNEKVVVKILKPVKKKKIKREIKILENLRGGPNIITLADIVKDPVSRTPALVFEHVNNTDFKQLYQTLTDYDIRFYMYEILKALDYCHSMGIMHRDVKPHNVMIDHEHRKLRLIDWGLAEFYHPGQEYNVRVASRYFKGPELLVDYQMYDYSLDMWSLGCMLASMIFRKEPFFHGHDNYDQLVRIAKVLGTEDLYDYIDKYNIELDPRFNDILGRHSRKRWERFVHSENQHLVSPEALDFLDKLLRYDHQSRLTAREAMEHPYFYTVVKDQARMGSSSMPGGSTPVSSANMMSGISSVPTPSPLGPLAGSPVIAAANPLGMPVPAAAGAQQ
Sequence of BMPR2 (human) (Q13873 whole entry, looked up): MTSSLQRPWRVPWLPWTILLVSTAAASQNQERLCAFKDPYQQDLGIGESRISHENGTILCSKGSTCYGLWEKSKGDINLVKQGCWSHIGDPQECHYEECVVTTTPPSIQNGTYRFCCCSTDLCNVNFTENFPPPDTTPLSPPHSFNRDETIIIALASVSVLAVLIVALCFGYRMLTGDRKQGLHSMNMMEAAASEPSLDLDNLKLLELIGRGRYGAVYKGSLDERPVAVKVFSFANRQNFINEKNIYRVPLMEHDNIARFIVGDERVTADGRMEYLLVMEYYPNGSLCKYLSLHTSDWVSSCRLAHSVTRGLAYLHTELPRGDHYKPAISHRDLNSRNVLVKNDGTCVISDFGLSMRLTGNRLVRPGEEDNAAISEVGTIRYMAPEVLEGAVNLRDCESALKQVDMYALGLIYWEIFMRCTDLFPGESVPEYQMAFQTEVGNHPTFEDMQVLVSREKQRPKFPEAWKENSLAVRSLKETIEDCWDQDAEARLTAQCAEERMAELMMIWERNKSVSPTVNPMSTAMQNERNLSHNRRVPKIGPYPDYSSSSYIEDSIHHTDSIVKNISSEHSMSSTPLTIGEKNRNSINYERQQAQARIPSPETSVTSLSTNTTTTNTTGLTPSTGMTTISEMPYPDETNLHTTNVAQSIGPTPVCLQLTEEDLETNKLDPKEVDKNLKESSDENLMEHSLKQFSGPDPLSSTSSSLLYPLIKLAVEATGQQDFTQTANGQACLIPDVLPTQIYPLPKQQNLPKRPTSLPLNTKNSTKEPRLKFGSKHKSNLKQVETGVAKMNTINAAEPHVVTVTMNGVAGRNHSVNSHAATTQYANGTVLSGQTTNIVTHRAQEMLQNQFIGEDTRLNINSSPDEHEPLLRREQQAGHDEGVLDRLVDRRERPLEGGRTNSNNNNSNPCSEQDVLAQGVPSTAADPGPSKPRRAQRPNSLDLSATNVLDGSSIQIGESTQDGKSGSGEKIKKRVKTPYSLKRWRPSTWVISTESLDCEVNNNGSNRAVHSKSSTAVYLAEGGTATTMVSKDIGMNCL
Sequence of NIM1 (human) (Q8IY84 whole entry, looked up): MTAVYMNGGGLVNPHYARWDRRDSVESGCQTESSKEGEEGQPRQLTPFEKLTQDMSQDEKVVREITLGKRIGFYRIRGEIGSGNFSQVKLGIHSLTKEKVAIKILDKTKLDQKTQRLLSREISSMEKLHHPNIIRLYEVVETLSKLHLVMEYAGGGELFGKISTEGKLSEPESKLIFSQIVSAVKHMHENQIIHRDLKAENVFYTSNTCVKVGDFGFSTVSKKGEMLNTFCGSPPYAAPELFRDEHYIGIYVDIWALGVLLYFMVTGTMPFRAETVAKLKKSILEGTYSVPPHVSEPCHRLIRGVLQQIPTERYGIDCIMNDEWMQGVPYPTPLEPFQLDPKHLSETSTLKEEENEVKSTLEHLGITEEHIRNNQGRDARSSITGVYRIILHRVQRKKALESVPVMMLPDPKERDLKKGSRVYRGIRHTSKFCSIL
Sequence of STK25 (human) (O00506 whole entry, looked up): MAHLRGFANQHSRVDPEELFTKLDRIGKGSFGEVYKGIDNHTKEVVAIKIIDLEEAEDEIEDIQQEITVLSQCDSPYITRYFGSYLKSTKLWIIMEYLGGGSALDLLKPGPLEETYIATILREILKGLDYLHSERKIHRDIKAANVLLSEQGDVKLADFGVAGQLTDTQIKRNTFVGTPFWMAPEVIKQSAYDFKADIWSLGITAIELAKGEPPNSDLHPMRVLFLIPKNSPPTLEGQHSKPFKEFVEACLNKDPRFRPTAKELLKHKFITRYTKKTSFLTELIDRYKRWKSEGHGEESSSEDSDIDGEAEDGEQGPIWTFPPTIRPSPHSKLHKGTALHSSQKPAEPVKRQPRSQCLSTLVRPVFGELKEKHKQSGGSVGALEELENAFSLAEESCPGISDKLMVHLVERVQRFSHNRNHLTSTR
Sequence of TESK1 (human) (Q15569 whole entry, looked up): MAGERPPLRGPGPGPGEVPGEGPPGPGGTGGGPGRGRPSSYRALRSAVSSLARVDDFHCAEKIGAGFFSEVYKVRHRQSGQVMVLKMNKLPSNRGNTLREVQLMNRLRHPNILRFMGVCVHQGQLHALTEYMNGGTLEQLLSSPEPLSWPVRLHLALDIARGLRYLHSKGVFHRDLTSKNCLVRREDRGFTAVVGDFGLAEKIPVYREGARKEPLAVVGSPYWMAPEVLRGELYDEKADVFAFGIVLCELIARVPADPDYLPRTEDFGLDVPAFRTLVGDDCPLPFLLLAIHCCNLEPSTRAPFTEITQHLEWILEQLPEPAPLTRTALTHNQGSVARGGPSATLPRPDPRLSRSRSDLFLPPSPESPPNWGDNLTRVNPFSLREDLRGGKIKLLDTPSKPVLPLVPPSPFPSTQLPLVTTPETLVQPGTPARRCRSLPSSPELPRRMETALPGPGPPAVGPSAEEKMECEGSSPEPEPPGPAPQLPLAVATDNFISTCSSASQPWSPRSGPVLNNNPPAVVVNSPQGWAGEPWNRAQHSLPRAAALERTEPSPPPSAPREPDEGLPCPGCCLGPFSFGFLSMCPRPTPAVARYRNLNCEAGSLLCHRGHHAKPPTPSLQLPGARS
Sequence of AXL (human) (P30530 whole entry, looked up): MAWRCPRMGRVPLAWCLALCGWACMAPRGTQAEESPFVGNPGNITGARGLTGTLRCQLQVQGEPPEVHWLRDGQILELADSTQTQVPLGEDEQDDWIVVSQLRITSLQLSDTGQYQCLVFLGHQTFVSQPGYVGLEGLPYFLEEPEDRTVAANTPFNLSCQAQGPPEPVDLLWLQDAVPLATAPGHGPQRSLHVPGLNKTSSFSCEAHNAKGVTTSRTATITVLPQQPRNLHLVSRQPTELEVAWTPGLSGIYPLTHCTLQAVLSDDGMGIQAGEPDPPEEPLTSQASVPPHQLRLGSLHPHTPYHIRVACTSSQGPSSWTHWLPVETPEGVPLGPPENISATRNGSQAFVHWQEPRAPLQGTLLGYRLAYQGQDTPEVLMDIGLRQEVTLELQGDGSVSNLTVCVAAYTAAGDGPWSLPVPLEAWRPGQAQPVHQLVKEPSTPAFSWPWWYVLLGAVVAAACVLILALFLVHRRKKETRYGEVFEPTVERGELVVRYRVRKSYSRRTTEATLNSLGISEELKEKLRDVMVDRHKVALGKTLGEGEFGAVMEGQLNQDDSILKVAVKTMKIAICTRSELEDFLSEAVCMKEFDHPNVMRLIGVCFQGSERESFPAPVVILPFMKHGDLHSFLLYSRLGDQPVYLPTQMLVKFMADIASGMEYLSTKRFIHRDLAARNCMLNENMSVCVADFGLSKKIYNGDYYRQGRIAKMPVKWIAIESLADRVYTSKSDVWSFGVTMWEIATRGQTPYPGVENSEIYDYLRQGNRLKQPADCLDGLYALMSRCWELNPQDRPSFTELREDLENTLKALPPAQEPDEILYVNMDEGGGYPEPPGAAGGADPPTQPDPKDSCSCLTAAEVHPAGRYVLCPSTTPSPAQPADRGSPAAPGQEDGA
Sequence of GRK7 (human) (Q8WTQ7 whole entry, looked up): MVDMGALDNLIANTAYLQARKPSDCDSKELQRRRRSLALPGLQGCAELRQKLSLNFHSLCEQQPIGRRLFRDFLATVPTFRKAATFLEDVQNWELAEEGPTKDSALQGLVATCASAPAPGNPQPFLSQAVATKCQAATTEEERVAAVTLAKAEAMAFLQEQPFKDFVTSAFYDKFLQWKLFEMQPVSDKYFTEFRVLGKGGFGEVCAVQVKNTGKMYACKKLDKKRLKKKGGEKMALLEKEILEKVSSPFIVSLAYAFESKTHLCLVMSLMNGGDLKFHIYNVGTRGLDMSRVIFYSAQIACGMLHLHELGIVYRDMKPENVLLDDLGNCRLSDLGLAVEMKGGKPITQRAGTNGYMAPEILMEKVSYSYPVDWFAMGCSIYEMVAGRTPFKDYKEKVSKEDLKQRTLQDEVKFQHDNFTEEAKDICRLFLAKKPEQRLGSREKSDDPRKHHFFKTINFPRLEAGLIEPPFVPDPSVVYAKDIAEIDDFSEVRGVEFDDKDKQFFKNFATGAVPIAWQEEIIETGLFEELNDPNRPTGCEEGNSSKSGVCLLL
Sequence of PLK2 (human) (Q9NYY3 whole entry, looked up): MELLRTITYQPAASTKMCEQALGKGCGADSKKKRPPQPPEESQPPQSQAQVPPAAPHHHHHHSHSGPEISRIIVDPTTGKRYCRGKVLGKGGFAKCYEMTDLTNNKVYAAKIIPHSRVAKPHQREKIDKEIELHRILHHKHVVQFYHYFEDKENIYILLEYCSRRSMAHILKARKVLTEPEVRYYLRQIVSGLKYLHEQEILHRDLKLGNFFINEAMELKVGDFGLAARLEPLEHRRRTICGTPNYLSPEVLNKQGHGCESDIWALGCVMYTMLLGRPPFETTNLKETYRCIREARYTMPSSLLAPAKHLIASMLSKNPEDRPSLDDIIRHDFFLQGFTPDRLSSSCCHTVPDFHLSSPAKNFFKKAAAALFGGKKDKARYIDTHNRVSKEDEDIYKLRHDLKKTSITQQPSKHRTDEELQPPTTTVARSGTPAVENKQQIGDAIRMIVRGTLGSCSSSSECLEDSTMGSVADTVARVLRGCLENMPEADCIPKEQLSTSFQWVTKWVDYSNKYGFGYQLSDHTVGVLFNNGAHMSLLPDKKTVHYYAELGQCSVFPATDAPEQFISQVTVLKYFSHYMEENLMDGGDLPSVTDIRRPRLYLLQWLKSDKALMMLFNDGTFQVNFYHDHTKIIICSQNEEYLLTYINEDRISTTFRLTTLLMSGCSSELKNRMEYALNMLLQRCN

Compound `N#Cc1cc(-c2ccnc(Nc3ccc(-n4cnc(-c5cccnc5)n4)cc3)n2)cc(N2CCOCC2)c1` has a kinase still bound, per cent of control (DCLK2 (human)) of 100%, a kinase still bound, per cent of control (PIP4K2C (human)) of 2.8% and a kinase still bound, per cent of control (MAST1 (human)) of 100%. It also gave a kinase still bound, per cent of control (SIK2 (human)) of 33%, a kinase still bound, per cent of control (MAP4K1 (human)) of 26% and a kinase still bound, per cent of control (MAPK12 (human)) of 80%. For the same compound, the kinase still bound, per cent of control (BMPR2 (human)) was 72%, the kinase still bound, per cent of control (PRKACB (human)) was 100% and the kinase still bound, per cent of control (TESK1 (human)) was 54%. For the same compound, the kinase still bound, per cent of control (PLK2 (human)) was 98%, the kinase still bound, per cent of control (ACVR2B (human)) was 49% and the kinase still bound, per cent of control (SYK (human)) was 25%. It also gave a kinase still bound, per cent of control (STK17A (human)) of 49%, a kinase still bound, per cent of control (WEE2 (human)) of 100% and a kinase still bound, per cent of control (GRK7 (human)) of 70%. For the same compound, the kinase still bound, per cent of control (TEC (human)) was 93%, the kinase still bound, per cent of control [1] was 53% and the kinase still bound, per cent of control (PTK6 (human)) was 100%. The kinase still bound, per cent of control (TNNI3K (human)) was 80%, the kinase still bound, per cent of control (FYN (human)) was 83% and the kinase still bound, per cent of control (LRRK2 (human)) was 94%. For the same compound, the kinase still bound, per cent of control (PRKAA2 (human)) was 94%, the kinase still bound, per cent of control (CSNK1D (human)) was 86% and the kinase still bound, per cent of control (STK25 (human)) was 64%. The kinase still bound, per cent of control (MYO3B (human)) was 100%, the kinase still bound, per cent of control (CDKL3 (human)) was 45% and the kinase still bound, per cent of control (STK33 (human)) was 88%. The kinase still bound, per cent of control (FGFR2 (human)) was 91%, the kinase still bound, per cent of control (CSNK2A1 (human)) was 2.2% and the kinase still bound, per cent of control (ERBB3 (human)) was 69%. The kinase still bound, per cent of control (PIK3C2B (human)) was 76%, the kinase still bound, per cent of control (HIPK3 (human)) was 5.5% and the kinase still bound, per cent of control (AXL (human)) was 28%. For the same compound, the kinase still bound, per cent of control (ULK3 (human)) was 6%, the kinase still bound, per cent of control (MAP3K13 (human)) was 100% and the kinase still bound, per cent of control (CLK1 (human)) was 2.5%. For the same compound, the kinase still bound, per cent of control (MST1R (human)) was 100%, the kinase still bound, per cent of control (SRC (human)) was 38% and the kinase still bound, per cent of control (NIM1 (human)) was 58%. The kinase still bound, per cent of control (CHEK2 (human)) was 100%.

`C=CC(=O)Nc1ccc(C(=O)c2sc(Nc3ccc(N4CCN(C)CC4)cc3OC)nc2N)cc1` showed a kinase still bound, per cent of control (DCLK2 (human)) of 28%, a kinase still bound, per cent of control (PIP4K2C (human)) of 20% and a kinase still bound, per cent of control (MAST1 (human)) of 0%. It also gave a kinase still bound, per cent of control (SIK2 (human)) of 72%, a kinase still bound, per cent of control (MAP4K1 (human)) of 84% and a kinase still bound, per cent of control (MAPK12 (human)) of 100%. The kinase still bound, per cent of control (BMPR2 (human)) was 100%, the kinase still bound, per cent of control (PRKACB (human)) was 92% and the kinase still bound, per cent of control (TESK1 (human)) was 100%. The kinase still bound, per cent of control (PLK2 (human)) was 81%, the kinase still bound, per cent of control (ACVR2B (human)) was 100% and the kinase still bound, per cent of control (SYK (human)) was 100%. It also gave a kinase still bound, per cent of control (STK17A (human)) of 100%, a kinase still bound, per cent of control (WEE2 (human)) of 100% and a kinase still bound, per cent of control (GRK7 (human)) of 100%. It also gave a kinase still bound, per cent of control (TEC (human)) of 98%, a kinase still bound, per cent of control [1] of 1.5% and a kinase still bound, per cent of control (PTK6 (human)) of 80%. For the same compound, the kinase still bound, per cent of control (TNNI3K (human)) was 89%, the kinase still bound, per cent of control (FYN (human)) was 83% and the kinase still bound, per cent of control (LRRK2 (human)) was 5.2%. For the same compound, the kinase still bound, per cent of control (PRKAA2 (human)) was 100%, the kinase still bound, per cent of control (CSNK1D (human)) was 72% and the kinase still bound, per cent of control (STK25 (human)) was 100%. It also gave a kinase still bound, per cent of control (MYO3B (human)) of 83%, a kinase still bound, per cent of control (CDKL3 (human)) of 100% and a kinase still bound, per cent of control (STK33 (human)) of 39%. The kinase still bound, per cent of control (FGFR2 (human)) was 49%, the kinase still bound, per cent of control (CSNK2A1 (human)) was 14% and the kinase still bound, per cent of control (ERBB3 (human)) was 93%. For the same compound, the kinase still bound, per cent of control (PIK3C2B (human)) was 100%, the kinase still bound, per cent of control (HIPK3 (human)) was 42% and the kinase still bound, per cent of control (AXL (human)) was 100%. The kinase still bound, per cent of control (ULK3 (human)) was 35%, the kinase still bound, per cent of control (MAP3K13 (human)) was 100% and the kinase still bound, per cent of control (CLK1 (human)) was 0.55%. The kinase still bound, per cent of control (MST1R (human)) was 100%, the kinase still bound, per cent of control (SRC (human)) was 100% and the kinase still bound, per cent of control (NIM1 (human)) was 91%. It also gave a kinase still bound, per cent of control (CHEK2 (human)) of 26%.

— the kinase profiling compilation of Christmann-Franck et al. (2016)
